Experimental data from the supplement of paper PMC10307832.

Columns and labels:
Assay in all cases: relative viability (nuclei count vs DMSO), 5 days (fraction); higher = more cells survive
[1] = compound: C=CCc1cccc(/C=N/NC(=O)CN2CCN(Cc3ccccc3)CC2)c1O [PAC-1] + N=C(N)NC(=N)NCCc1ccccc1 [Phenformin] (partner 250 µM)
How it was run: (§1)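 Nuclei were stained with Hoechst during a one-step fixation (final 0.05% Triton X-100, 1% formaldehyde, 1 ug/ml Hoechst) carried out 5 days after dosing, then counted on 4× images. The cells, lung cancer lines in 1536-well plates, had been dosed by pin tool the day after seeding with one drug alone or a fixed anchor-drug dose plus five library-drug doses (not always all listed) in √10 steps. Relative viability is the nuclei count in treated wells divided by that in vehicle wells, and each value is the median of duplicate plates.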

[2] = compound: C=CC(=O)N1CCC[C@@H](n2nc(-c3ccc(Oc4ccccc4)cc3)c3c(N)ncnc32)C1 [Ibrutinib] + Cc1cc(Nc2cc(N3CCN(C)CC3)nc(Sc3ccc(NC(=O)C4CC4)cc3)n2)n[nH]1 [Tozasertib] (partner 0.1 µM)
How it was run: as §1

[3] = compound: C=CC(=O)N1CCC[C@@H](n2nc(-c3ccc(Oc4ccccc4)cc3)c3c(N)ncnc32)C1 [Ibrutinib] + O=C(CCCCCCC(=O)Nc1ccccc1)NO [Vorinostat] (partner 1 µM)
How it was run: as §1

[4] = compound: C=CC(=O)Nc1cc(-n2c(=O)ccc3cnc4ccc(-c5ccc(NS(C)(=O)=O)cc5)cc4c32)ccc1C [BMX-IN-1] + CC(=O)c1c(C)c2cnc(Nc3ccc(N4CCNCC4)cn3)nc2n(C2CCCC2)c1=O [Palbociclib] (partner 0.5 µM)
How it was run: as §1

Cell Line | relative viability ([1]; first compound 0.02 µM) | relative viability ([1]; first compound 0.06325 µM) | relative viability ([1]; first compound 0.2 µM) | relative viability ([1]; first compound 2 µM) | relative viability ([2]; first compound 0.01581 µM) | relative viability ([2]; first compound 0.05 µM) | relative viability ([2]; first compound 0.1581 µM) | relative viability ([2]; first compound 0.5 µM) | relative viability ([3]; first compound 0.005 µM) | relative viability ([3]; first compound 0.01581 µM) | relative viability ([3]; first compound 0.05 µM) | relative viability ([3]; first compound 0.1581 µM) | relative viability ([3]; first compound 0.5 µM) | relative viability ([4]; first compound 0.02 µM) | relative viability ([4]; first compound 0.2 µM) | relative viability ([4]; first compound 0.6325 µM) | relative viability ([4]; first compound 2 µM) | relative viability ([2]; first compound 0.005 µM)
NCI-H647 | 0.609 | 0.504 | 0.431 | 0.571 | 0.298 | 0.39 | 0.347 | 0.174 | 0.569 | 0.472 | 0.695 | 0.645 | 0.67 | 0.436 | 0.384 | 0.377 | 0.416 | 
NCI-H650 | 0.469 | 0.452 | 0.403 | 0.444 | 0.672 | 0.758 | 0.808 | 0.782 | 0.36 | 0.389 | 0.413 | 0.578 | 0.45 | 0.293 | 0.332 | 0.331 | 0.353 | 0.783
NCI-H661 | 0.255 | 0.299 | 0.278 | 0.29 | 0.372 | 0.384 | 0.348 | 0.389 | 0.746 | 0.761 | 0.752 | 0.758 | 0.752 | 0.388 | 0.39 | 0.421 | 0.398 | 0.353
NCI-H727 | 0.463 | 0.682 | 0.565 | 0.52 | 0.578 | 0.624 |  | 0.533 | 1.11 | 1.18 | 1.26 | 0.808 | 1.12 | 0.611 | 0.672 | 0.625 | 0.592 | 0.542
NCI-H838 | 0.509 | 0.585 | 0.46 | 0.572 | 0.261 | 0.285 | 0.27 | 0.277 | 0.786 | 0.688 | 0.762 | 0.77 | 0.717 | 0.241 | 0.198 | 0.222 | 0.24 | 0.261
NCI-H1355 | 0.461 | 0.517 | 0.431 | 0.438 | 0.518 | 0.517 | 0.62 | 0.491 |  | 0.626 |  | 0.688 | 0.549 | 0.394 | 0.392 | 0.399 | 0.404 | 0.601
NCI-H1395 | 0.45 | 0.429 | 0.421 | 0.426 | 0.688 | 0.782 | 0.74 | 0.776 | 0.529 | 0.79 | 0.642 | 0.516 | 0.798 | 0.702 | 0.62 | 0.572 | 0.588 | 0.77
NCI-H1437 | 0.302 | 0.275 | 0.264 | 0.339 | 0.373 | 0.472 | 0.403 | 0.391 | 0.865 | 0.919 | 0.908 | 0.854 | 1.02 | 0.326 | 0.294 | 0.354 | 0.328 | 0.437
NCI-H1650 | 0.427 | 0.478 | 0.411 | 0.42 | 0.36 | 0.4 | 0.394 | 0.302 | 0.579 | 0.589 | 0.422 | 0.71 | 0.535 | 0.307 | 0.313 | 0.32 | 0.333 | 0.329
